Results on 38 compounds are retold here after patent publication US11597727B2 (THE REGENTS OF THE UNIVERSITY OF CALIFORNIA, priority 2018, dated 2023).

pIC50: −log10 of the molar value.

Sequence of integrin α2β1 (P17301 30-1181): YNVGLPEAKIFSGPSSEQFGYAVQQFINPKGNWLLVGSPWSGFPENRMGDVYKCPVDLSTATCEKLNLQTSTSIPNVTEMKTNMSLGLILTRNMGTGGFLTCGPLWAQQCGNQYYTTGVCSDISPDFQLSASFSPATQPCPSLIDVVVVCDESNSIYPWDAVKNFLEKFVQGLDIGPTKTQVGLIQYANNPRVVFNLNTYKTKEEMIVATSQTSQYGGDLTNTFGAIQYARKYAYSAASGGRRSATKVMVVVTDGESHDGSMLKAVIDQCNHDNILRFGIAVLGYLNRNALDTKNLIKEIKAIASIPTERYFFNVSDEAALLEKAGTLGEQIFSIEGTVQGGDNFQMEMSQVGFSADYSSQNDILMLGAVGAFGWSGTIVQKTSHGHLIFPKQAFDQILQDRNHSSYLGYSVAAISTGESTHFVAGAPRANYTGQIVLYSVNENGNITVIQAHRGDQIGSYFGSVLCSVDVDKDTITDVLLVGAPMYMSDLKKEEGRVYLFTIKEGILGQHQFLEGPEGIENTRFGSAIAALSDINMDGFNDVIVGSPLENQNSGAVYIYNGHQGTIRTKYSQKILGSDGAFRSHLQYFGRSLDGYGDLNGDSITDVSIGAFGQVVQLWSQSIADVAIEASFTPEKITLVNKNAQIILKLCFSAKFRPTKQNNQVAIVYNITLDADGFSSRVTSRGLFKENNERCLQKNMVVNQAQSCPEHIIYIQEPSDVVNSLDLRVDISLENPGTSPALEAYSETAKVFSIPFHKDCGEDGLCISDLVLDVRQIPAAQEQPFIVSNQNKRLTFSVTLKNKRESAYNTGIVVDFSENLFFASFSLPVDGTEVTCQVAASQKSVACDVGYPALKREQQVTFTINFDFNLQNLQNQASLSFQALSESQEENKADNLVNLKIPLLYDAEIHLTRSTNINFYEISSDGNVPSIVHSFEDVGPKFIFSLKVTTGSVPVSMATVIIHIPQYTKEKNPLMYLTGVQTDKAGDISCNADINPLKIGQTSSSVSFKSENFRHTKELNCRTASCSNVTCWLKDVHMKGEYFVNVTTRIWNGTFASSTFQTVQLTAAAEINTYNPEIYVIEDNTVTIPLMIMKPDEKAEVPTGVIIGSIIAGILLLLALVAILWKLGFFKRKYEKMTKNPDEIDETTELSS
Sequence of integrin α2β1 (P05556 21-798): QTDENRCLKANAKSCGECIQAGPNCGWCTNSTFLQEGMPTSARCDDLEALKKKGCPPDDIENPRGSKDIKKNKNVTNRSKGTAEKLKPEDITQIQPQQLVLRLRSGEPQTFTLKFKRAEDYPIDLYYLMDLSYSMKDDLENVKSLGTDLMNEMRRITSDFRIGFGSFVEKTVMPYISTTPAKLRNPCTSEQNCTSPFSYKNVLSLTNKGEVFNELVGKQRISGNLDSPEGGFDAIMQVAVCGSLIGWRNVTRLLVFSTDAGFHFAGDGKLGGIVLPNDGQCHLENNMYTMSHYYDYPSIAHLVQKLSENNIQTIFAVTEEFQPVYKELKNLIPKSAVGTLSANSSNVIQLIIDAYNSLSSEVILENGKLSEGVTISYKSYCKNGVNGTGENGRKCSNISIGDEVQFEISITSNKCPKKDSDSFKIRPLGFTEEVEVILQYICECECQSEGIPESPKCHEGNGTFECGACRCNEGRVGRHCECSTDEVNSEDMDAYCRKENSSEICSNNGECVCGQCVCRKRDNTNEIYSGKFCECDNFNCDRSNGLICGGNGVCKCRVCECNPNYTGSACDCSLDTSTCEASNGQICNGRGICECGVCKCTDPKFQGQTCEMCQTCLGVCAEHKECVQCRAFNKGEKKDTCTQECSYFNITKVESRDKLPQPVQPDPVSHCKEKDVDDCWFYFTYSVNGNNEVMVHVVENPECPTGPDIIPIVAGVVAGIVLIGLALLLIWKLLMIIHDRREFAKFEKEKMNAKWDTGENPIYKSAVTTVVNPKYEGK

This assay concerns the target integrin α2β1 (Homo sapiens, UniProt P05556+P17301). The experiment in a line: HT 1080 cell adhesion assay on rat tail collagen I. To be noted: HT1080 (human fibrosarcoma) cells on rat tail collagen I, absorbance at 595 nm, triplicate; read-out: IC50s from HT 1080 Cell adhesion assay. On the set-up: HT1080 (human fibrosarcoma) cells (or human airway smooth muscle cells) were detached and resuspended in serum-free DMEM; endogenous in cells; host or cells: HT1080 human fibrosarcoma cells. It counts as cell-based. As for the experimental part: Cell adhesion Assay: Ninety-six-well flat-bottomed tissue culture plates were coated with rat tail collagen I for 1 hour at 37° C. After incubation, wells were blocked with 1% BSA at 37° C. for 1 hour. Control wells were filled with 1% BSA. HT1080 (human fibrosarcoma) cells (or human airway smooth muscle cells) were detached and resuspended in serum-free DMEM. Cells were incubated with anti-integrin alpha2 antibody control or 10-fold dilutions of each compound with a starting concentration of 10 uM for 15 minutes at 4° C. before plating. The plates were centrifuged at 10 g for 5 minutes before incubation for 1 hour at 37° C. in humidified 5% CO2. Nonadherent cells were removed by centrifugation (top side down) at 10 g for 5 minutes. Attached cells were stained with 0.5% crystal violet, and the wells were washed with PBS. The relative number of cells in each well was evaluated after solubilization in 40 μl of 2% Triton X-100 by measuring absorbance at 595 nm in a microplate reader. All determinations were carried out in triplicate.
For the compound `Nc1ccc(CNC(=O)NC[C@H](NC(=O)c2c(Cl)cccc2Cl)C(=O)O)cc1` [KZ-1-37, (S)-3-(3-(4-aminobenzyl)ureido)-2-(2,6-dichlorobenzamido)propanoic acid], the pIC50 is less than 4.00.

In the case of `COc1ccc(CNC(=O)NC[C@H](NC(=O)c2c(Cl)cccc2Cl)C(=O)O)cc1` [KZ-1-20, (S)-2-(2,6-dichlorobenzamido)-3-(3-(4-methoxybenzyl)ureido)propanoic acid], the pIC50 was less than 4.00.

`C[C@@H]1[C@H]2C[C@@H](C[C@H]1NC(=O)NC[C@H](NC(=O)c1c(Cl)cccc1Cl)C(=O)O)C2(C)C` [A2-170, (S)-2-(2,6-dichlorobenzamido)-3-(3-((1R,2R,3R,5S)-2,6,6-trimethylbicyclo[3.1.1]heptan-3-yl)ureido)propanoic acid]: the pIC50 is 4.00 to 5.00.

For the compound `CC(NC(=O)NCC(NC(=O)c1c(Cl)cccc1Cl)C(=O)O)C1CC2CCC1C2` [A2-176, (2S)-3-(3-(1-((1 S,4R)-bicyclo[2.2.1]heptan-2-yl)ethyl)ureido)-2-(2,6-dichlorobenzamido)propanoic acid], the pIC50 was 4.00 to 5.00.

Consider `O=C(NCc1ccccc1)NC[C@H](NC(=O)C1CCCCC1)C(=O)O` [A2-63, (S)-3-(3-benzylureido)-2-(cyclohexanecarboxamido)propanoic acid], for which the pIC50 was less than 4.00.

For the compound `O=C(NCCC12CC3CC(CC(C3)C1)C2)NC[C@H](NC(=O)c1c(Cl)cccc1Cl)C(=O)O` [A2-154, (S)-3-(3-(2-(adamantan-1-yl)ethyl)ureido)-2-(2,6-dichlorobenzamido)propanoic acid], the pIC50 was 4.00 to 5.00.

On to `O=C(NCc1ccsc1)NC[C@H](NC(=O)c1c(Cl)cccc1Cl)C(=O)O` [KZ-1-38, (S)-2-(2,6-dichlorobenzamido)-3-(3-(thiophen-3-ylmethyl)ureido)propanoic acid], for which the pIC50 is 4.00 to 5.00.

On to `O=C(NCc1ccccc1)NC[C@H](NC(=O)c1c(C(F)(F)F)cccc1C(F)(F)F)C(=O)O` [A2-27, (S)-3-(3-benzylureido)-2-(2,6-bis(trifluoromethyl)benzamido)propanoic acid], for which the pIC50 is 4.00 to 5.00.

On to `O=C(NC[C@H](NC(=O)c1c(Cl)cccc1Cl)C(=O)O)NC12CC3CC(CC(C3)C1)C2` [A2-87], for which the pIC50 is 4.00 to 5.00.

Consider `Cc1ccccc1CNC(=O)NC[C@H](NC(=O)c1c(Cl)cccc1Cl)C(=O)O` [KZ-1-39, (S)-2-(2,6-dichlorobenzamido)-3-(3-(2-methylbenzyl)ureido)propanoic acid], for which the pIC50 was 4.00 to 5.00.

`CC12CC3CC(C)(C1)CC(NC(=O)NC[C@H](NC(=O)c1c(Cl)cccc1Cl)C(=O)O)(C3)C2` [A2-128, (S)-2-(2,6-dichlorobenzamido)-3-(3-(3,5-dimethyladamantan-1-yl)ureido)propanoic acid]: the pIC50 is 4.00 to 5.00.

For `Cc1cccc(Cl)c1C(=O)N[C@@H](CNC(=O)NCc1ccccc1)C(=O)O` [A2-35, (S)-3-(3-benzylureido)-2-(2-chloro-6-methylbenzamido)propanoic acid], the pIC50 is 4.00 to 5.00.

As to `O=C(NC[C@H](NC(=O)c1c(Cl)cccc1Cl)C(=O)O)NC12CC3CC(C1)CC(C(F)(F)F)(C3)C2` [A2-131, (S)-2-(2,6-dichlorobenzamido)-3-(3-(3-(trifluoromethyl)adamantan-1-yl)ureido)propanoic acid], the pIC50 is 4.00 to 5.00.

Turning to `O=C(NCc1ccccc1)NC[C@H](NC(=O)c1c(Cl)cncc1Cl)C(=O)O` [A2-29, (S)-3-(3-benzylureido)-2-(3,5-dichloroisonicotinamido)propanoic acid], the pIC50 was greater than 5.00.

Regarding `O=C(NC[C@H](NC(=O)c1c(Cl)cccc1Cl)C(=O)O)NCC12CC3CC(CC(O)(C3)C1)C2` [A2-153], the pIC50 was 4.00 to 5.00.

Consider `CC(C)(C)OC(=O)NC[C@H](NC(=O)c1c(Cl)cccc1Cl)C(=O)O` [A2-39, (S)-3-((tert-butoxycarbonyl)amino)-2-(2,6-dichlorobenzamido)propanoic acid], for which the pIC50 is 4.00 to 5.00.

As to `O=C(NCc1ccc(Cl)cc1)NC[C@H](NC(=O)c1c(Cl)cccc1Cl)C(=O)O` [KZ-1-26, (S)-3-(3-(4-chlorobenzyl)ureido)-2-(2,6-dichlorobenzamido)propanoic acid], the pIC50 was less than 4.00.

For `O=C(NC[C@H](NC(=O)c1c(Cl)cccc1Cl)C(=O)O)NC12CCC3CC(CC(C3)C1)C2` [A2-181, (25)-2-(2,6-dichlorobenzamido)-3-(3-(tricyclo[4.3.1.13,8]undecan-3-yl)ureido)propanoic acid], the pIC50 was 4.00 to 5.00.

`CC(NC(=O)NC[C@H](NC(=O)c1c(Cl)cccc1Cl)C(=O)O)C12CC3CC(CC(C3)C1)C2` (stereo partly drawn) [A2-132, (2S)-3-(3-(1-(adamantan-1-yl)ethyl)ureido)-2-(2,6-dichlorobenzamido)propanoic acid]: the pIC50 is 4.00 to 5.00.

For the compound `C[C@H](NC(=O)NC[C@H](NC(=O)c1c(Cl)cccc1Cl)C(=O)O)c1ccccc1` [KZ-1-13, (S)-2-(2,6-dichlorobenzamido)-3-(3-((S)-1-phenylethyl)ureido)propanoic acid], the pIC50 was less than 4.00.

As to `O=C(NC[C@H](NC(=O)c1c(Cl)cccc1Cl)C(=O)O)NC(c1ccccc1)c1ccccc1` [A2-127, (S)-3-(3-benzhydrylureido)-2-(2,6-dichlorobenzamido)propanoic acid], the pIC50 is 4.00 to 5.00.

In the case of `CC(C)(C)NC(=O)NC[C@H](NC(=O)c1c(Cl)cccc1Cl)C(=O)O`, the pIC50 was less than 4.00.

On to `O=C(NCC1CC2CCC1C2)NC[C@H](NC(=O)c1c(Cl)cccc1Cl)C(=O)O` (stereo partly drawn) [A2-174, (2S)-3-(3-(bicyclo[2.2.1]heptan-2-ylmethyl)ureido)-2-(2,6-dichlorobenzamido)propanoic acid], for which the pIC50 was 4.00 to 5.00.

As for `O=C(NCc1ccco1)NC[C@H](NC(=O)c1c(Cl)cccc1Cl)C(=O)O` [KZ-1-17, (S)-2-(2,6-dichlorobenzamido)-3-(3-(furan-2-ylmethyl)ureido)propanoic acid], the pIC50 is less than 4.00.

For `COc1cccc(CNC(=O)NC[C@H](NC(=O)c2c(Cl)cccc2Cl)C(=O)O)c1` [KZ-1-15, (S)-2-(2,6-dichlorobenzamido)-3-(3-(3-methoxybenzyl)ureido)propanoic acid], the pIC50 was 4.00 to 5.00.

Take `O=C(NCC1CC12CCCCC2)NC[C@H](NC(=O)c1c(Cl)cccc1Cl)C(=O)O` (stereo partly drawn) [A2-177, (2S)-2-(2,6-dichlorobenzamido)-3-(3-(spiro[2.51]octan-1-ylmethyl)ureido)propanoic acid]: the pIC50 was 4.00 to 5.00.

With `O=C(NCC1CCCCC1)NC[C@H](NC(=O)c1c(Cl)cccc1Cl)C(=O)O` [KZ-1-22, (S)-3-(3-(cyclohexylmethyl)ureido)-2-(2,6-dichlorobenzamido)propanoic acid], the pIC50 was less than 4.00.

`O=C(NCc1cccs1)NC[C@H](NC(=O)c1c(Cl)cccc1Cl)C(=O)O` [KZ-1-34, (S)-2-(2,6-dichlorobenzamido)-3-(3-(thiophen-2-ylmethyl)ureido)propanoic acid]: the pIC50 is 4.00 to 5.00.

On to `Cc1cc(OC(C)C)cc(C)c1C(=O)N[C@@H](CNC(=O)NCc1ccccc1)C(=O)O` [A2-61, (S)-3-(3-benzylureido)-2-(4-isopropoxy-2,6-dimethylbenzamido)propanoic acid], for which the pIC50 was 4.00 to 5.00.

Take `O=C(NC[C@H](NC(=O)c1c(Cl)cccc1Cl)C(=O)O)NC12CC3CC(CC1C3)C2` [A2-145, (2S)-2-(2,6-dichlorobenzamido)-3-(3-(hexahydro-2,5-methanopentalen-3a(1H)-yl)ureido)propanoic acid]: the pIC50 was 4.00 to 5.00.

Regarding `CCN(CC)C(=O)NC[C@H](NC(=O)c1c(Cl)cccc1Cl)C(=O)O` [A2-71, (S)-2-(2,6-dichlorobenzamido)-3-(3,3-diethylureido)propanoic acid], the pIC50 is less than 4.00.

On to `O=C(NC[C@H](NC(=O)c1c(Cl)cccc1Cl)C(=O)O)OCc1ccccc1` [A2-72, (S)-3-(((benzyloxy)carbonyl)amino)-2-(2,6-dichlorobenzamido)propanoic acid], for which the pIC50 was less than 4.00.

For the compound `CC1(C)C2CCC(CNC(=O)NC[C@H](NC(=O)c3c(Cl)cccc3Cl)C(=O)O)C1C2` (some centres unmarked) [A2-173], the pIC50 is 4.00 to 5.00.

Turning to `CCC(CC)C(=O)N[C@@H](CNC(=O)NCc1ccccc1)C(=O)O` [A2-38, (S)-3-(3-benzylureido)-2-(2-ethylbutanamido)propanoic acid], the pIC50 was less than 4.00.

With `CC(NC(=O)NC[C@H](NC(=O)c1c(Cl)cccc1Cl)C(=O)O)C12CC3CC(CC(O)(C3)C1)C2` (stereo partly drawn) [A2-152, (2S)-2-(2,6-dichlorobenzamido)-3-(3-(1-(3-hydroxyadamantan-1-yl)ethyl)ureido)propanoic acid], the pIC50 was 4.00 to 5.00.

For the compound `Cc1ccc(CNC(=O)NC[C@H](NC(=O)c2c(Cl)cccc2Cl)C(=O)O)cc1` [KZ-1-9, (S)-2-(2,6-dichlorobenzamido)-3-(3-(4-methylbenzyl)ureido)propanoic acid], the pIC50 is less than 4.00.

Consider `O=C(NC[C@H](NC(=O)c1c(Cl)cccc1Cl)C(=O)O)Nc1ccccc1` [KZ-1-25, (S)-2-(2,6-dichlorobenzamido)-3-(3-phenylureido)propanoic acid], for which the pIC50 is less than 4.00.

Turning to `Cc1cccc(CNC(=O)NC[C@H](NC(=O)c2c(Cl)cccc2Cl)C(=O)O)c1` [KZ-1-16, (S)-2-(2,6-dichlorobenzamido)-3-(3-(3-methylbenzyl)ureido)propanoic acid], the pIC50 is 4.00 to 5.00.
